Laboratory results taken from patent publication US20140315754A1, “METHODS AND COMPOSITIONS FOR ASSESSING AND TREATING CANCER” (The Board of Regents of the University of Texas System, priority 2013, published 2014).

Key:
[1] = test system: 5′ promoter of DCLK1 gene (L-DCLK1 expression); assay: RT-PCR expression of L/S DCLK1 in HCT-116 cells before or after 5-Aza-Cytidine; assay type: cell-based, human; details: FIG. 12B
Source text: FIG. 12 (A) Methylation of CpG sites in 5′-promoter of DCLK1-gene in cell lines/human samples; NC=normal colon; CRC=colorectal cancer. (B) Expression of L/S DCLK1 in HCT-116 cells before (−) or after (+) treatment with 5-Aza-Cytidine by RT-PCR.
Recent reports have confirmed DNA methylation of 5′ promoter of DCLK1 gene in CRCs (Vedeld et al. Epigenetics 2014, 9(3).30). Thus, DNA methylation of 5′ promoter leads to epigenetic silencing and loss of L expression in cancer cells/tumors.

[2] = test system: DCLK1 positive cancer cells (CSCs); assay: In vitro relapse assay (spheroid re-growth from cancer stem cells); assay type: cell-based
Source text: In certain embodiments an expression vector can be used to provide an inhibitory RNA to a cell in vitro or in vivo. […] Thus accumulating evidence from literature and from our laboratory strongly supports a critical role of DCLK1 in cancer stem cell biology.

COL3A1 promoter = assay: Promoter activity of COL3A1 constructs in HCT116 cells; assay type: cell-based, human; details: C-Luciferase reporter, FIG. 14
Source text: FIG. 14 HTS Bioassay: (A) RT-PCR analysis of COL3A1 in ShC and ShD clones (5′upstream nucleotide sequence of COL3A1 gene is provided in SEQ ID NO:10). (B) The map of the promoter constructs fused to secretable Cypridina Luciferase (C-Luciferase). (C) The flow diagram of the method used to measure the promoter activity of COL3A1 constructs in HCT116 cells. (D) The promoter activity of COL3A1 constructs in HCT116 cells.
The inventors developed bioassays for […] (HTS), using promoter-reporter constructs of genes identified as being down stream of DCLK1-S, but not DCLK1-L (FIG. 15). As an example of the bioassays developed, the inventors generated promoter-reporter constructs of COL3A1 gene in pCLuc-BASIC-2 vector, based on published sequence of the Col3A1 gene (FIG. 14A-14C) and transiently transfected ShC/ShD clones of HCT-116 cells, as per protocol shown in FIG. 14D. […] Data obtained from the HTS assays with the specific bioassays will help identify specific molecules from available chemical libraries, which will then allow the development of safe and effective drugs for inhibiting tumorigenic/metastatic potential of cancer stem cells, while sparing the functions of normal stem cells in intestinal crypts, as a non-toxic treatment strategy for colorectal/pancreatic cancers, and other cancers as well, which are found to be dependent on the expression of DCLK1-S.

Row | Compound | expression of L-DCLK1 [1] | relapse/re-growth of spheroids [2] | promoter activity of COL3A1 constructs (COL3A1 promoter)
1 | Nc1ncn([C@@H]2O[C@H](CO)[C@@H](O)[C@H]2O)c(=O)n1 [5 aza cytidine] | re-expression of L-DCLK1 |  | 
2 | COc1cc(/C=C/C(=O)CC(=O)/C=C/c2ccc(O)c(OC)c2)ccc1O [curcumin] |  | underwent autophagic survival and re-grew (relapse) as spheroids | 
3 | shRNA: DCLK1 targeting shRNA; shrna sequence ATCGTTCTGTTATTGTAGC in pGZIP Lentiviral vector (ShD clones) (pGZIP lentiviral vector) |  | eliminated relapse/re-growth of spheroids | loss of promoter activity
